From patent US4587342A, “2,4-diamino-(substituted-benzopyran(quinolyl,isoquinoly)methyl)pyrimidine s useful as antibacterials” (priority 1980, dated 1986)
≈ marks a conversion by molar mass, not a printed value.

Test system: Staph. aureus
Assay: MIC vs Staph. aureus (Table 2)
Assay type: cell-based
Settings: Staphylococcus aureus, strain not given
Text: The compounds of the present invention were subjected to standard tests in order to determine the minimum inhibitory concentration in μg/ml needed to inhibit a range of bacterial microorganisms in-vitro.

SMILES | MIC [µg/mL]
COc1ccc(Cc2cnc(N)nc2N)c2cccnc12 [Compound 3, 2,4-Diamino-5-(8-methoxy-5-quinolylmethyl)-pyrimidine] | 0.5 (≈ 1.78 µM)
CC=Cc1cc(Cc2cnc(N)nc2N)c2cccnc2c1OC [Compound 14, 2,4-Diamino-5-(8-methoxy-7-(1-propenyl)-5-quinolylmethyl)pyrimidine] | 0.05 (≈ 0.156 µM)
COc1cc(Cc2cnc(N)nc2N)c2ccc(=O)oc2c1OC [Compound 7, 2,4-Diamino-5-(7,8-dimethoxy-2-oxo-2 --H--1-benzopyran-5-ylmethyl)pyrim] | 0.5 (≈ 1.52 µM)
Cc1cc(Cc2cnc(N)nc2N)c2cccnc2c1N.Cl [Compound 5, 2,4-Diamino-5-(8-amino-7-methyl-5-quinolylmethyl)-pyrimidine hydrochloride] | 0.5
COc1cc(Cc2cnc(N)nc2N)c2cccnc2c1N(C)C.Cl.Cl [Compound 15, 2,4-Diamino-5-(8-dimethylamino-7-methoxy-5-quinolylmethyl)pyrimidine dihydrochloride] | 0.5
C=CCc1cc(Cc2cnc(N)nc2N)c2cccnc2c1OC [Compound 12, 5-(7-Allyl-8-methoxy-5-quinolylmethyl)-2,4-diaminopyrimidine] | 0.05 (≈ 0.156 µM)
COc1cc(Cc2cnc(N)nc2N)c2c(c1OC)OC(C)(C)C=C2 [Compound 6, 2,4-Diamino-5-(7,8-dimethoxy-2,2-dimethyl-2 --H--1-benzopyran-5-ylmethyl) pyrimidine lactate] | 0.05
C=CCc1cc(Cc2cnc(N)nc2N)c2cccnc2c1O [Compound 11, 5-(7-Allyl-8-hydroxy-5-quinolylmethyl)-2,4-diaminopyrimidine] | 1 (≈ 3.25 µM)
COc1cc(Cc2cnc(N)nc2N)c2c(c1OC)OC=CC2 [Compound 10, 2,4-Diamino-5-(7,8-dimethoxy-4 --H--1-benzopyran-5-ylmethyl)pyrimidine acetate] | 0.05

Next, values leading:

MIC [µg/mL] | SMILES
0.5 (≈ 1.78 µM) | COc1cc(Cc2cnc(N)nc2N)c2cccnc2c1 [Compound 29, 2,4-Diamino-5-(7-methoxy-5-quinolylmethyl)pyridimine]
0.1 (≈ 0.303 µM) | COc1cc(Cc2cnc(N)nc2N)c2c(c1OC)OC(C)CC2 (stereo not shown) [Compound 22, 2,4-Diamino-5-(7,8-dimethoxy-3,4-dihydro-2-methyl-2 --H---1-benzopyran-5-ylmethyl)pyrimidine]
5 (≈ 16.8 µM) | COc1cc(Cc2cnc(N)nc2N)c2cccnc2c1O [Compound 23, 2,4-Diamino-5-(8-hydroxy-7-methoxy-5-quinolylmethyl)pyrimidine]
0.05 (≈ 0.152 µM) | COc1cc(Cc2cnc(N)nc2N)c2c(c1OC)OC(C)=CC2 [Compound 19, 2,4-Diamino-5-(7,8-dimethoxy-2-methyl-4H--1-benzopyran-5-ylmethyl)pyrimidine]
0.1 | CSc1cc(Cc2cnc(N)nc2N)c2cccnc2c1N.Cl.Cl [Compound 30, 2,4-Diamino-5-(8-amino-7-methylthio-5-quinolylmethyl)pyrimidine dihydrochloride]
0.5 | Cc1cc(Cc2cnc(N)nc2N)c2cccnc2c1.Cl.Cl [Compound 17, 2,4-Diamino-5-(7-methyl-5-quinolylmethyl)-pyrimidine dihydrochloride]
0.05 (≈ 0.154 µM) | C=CCc1cc(Cc2cnc(N)nc2N)c2c(c1OC)NCCC2 [Compound 36, 5-(7-allyl-8-methoxy-5-(1,2,3,4-tetrahydro-quinolylmethyl))-2,4-diaminopyrimidine]
0.5 | CC(=O)O.Cc1cc(Cc2cnc(N)nc2N)c2cccnc2c1-n1cccc1 [Compound 18, 2,4-Diamino-5-(8-(1-pyrrolyl)-7-methyl-5-quinolylmethyl)pyrimidine acetate]
0.1 | Cl.Cl.Nc1ncc(Cc2cc(Cl)c(N)c3ncccc23)c(N)n1 [Compound 28, 2,4-Diamino-5-(8-amino-7-chloro-5-quinolylmethyl)pyrimidine dihydrochloride]
0.5 (≈ 1.69 µM) | COc1cc(Cc2cnc(N)nc2N)c2ncccc2c1N [Compound 35, 2,4-Diamino-5-(5-amino-6-methoxy-8-quinolylmethyl)pyrimidine]
